# Experimental data from patent publication US20140200188A1, “2'-FLUORO SUBSTITUTED CARBA-NUCLEOSIDE ANALOGS FOR ANTIVIRAL TREATMENT” (priority 2010, published 2014).
# Experiments:
# [1] = biological target: Influenza RNA polymerase (Influenza A/PR8/34 (H1N1) virus lysate) (Influenza A virus, UniProt P03431); assay: Influenza RNA polymerase inhibition (IC50) assay; format: biochemical
# [2] = tested on: Influenza A virus (A/Hong Kong/8/68); assay: Influenza A antiviral assay (H3N2), virus-induced cytopathic effect in MDCK cells; format: cell-based; conditions: 120 h, Influenza A/Hong Kong/8/68 (H3N2), MOI 0.03, five day incubation, Cell-titer Glo, read-out: EC50 against the influenza virus
# Protocol: MDCK cells were seeded in 96-well plates at a density of 1e5 cells per well in 100 μL of MEM culture medium with 10% FBS. Compounds were 3-fold serially diluted in complete MEM culture medium, with 100 μM as the highest concentration. Each concentration was tested in duplicate. Prior to infection, cells were washed once with 200 μL serum-free MEM. Influenza A virus (A/Hong Kong/8/68, Advanced Biotechnology Inc, Columbia, Md.) was added to cells at MOI 0.03 in 100 ul serum-free MEM containing 27 U/mL trypsin (Worthington, Lakewood, N.J.). After 10 minute incubation at room temperature, 100 μL compound dilutions were added to infected cells for a final volume of 200 μL. After five day incubation at 37° C., virus-induced cytopathic effect was determined by adding Cell-titer Glo viability reagents (Promega, Madison, Wis.) and measuring luminescence on a Victor Luminescence plate reader (Perkin-Elmer, Waltham, Mass.). The cytotoxicity of the compounds in MDCK cells was determined in replicate plates in the same way as in antiviral activity assays, except no virus was added to the cell culture. EC50 and CC50 values were calculated by non-linear regression of multiple data sets using XLFit software (IBDS, Guildford, UK).
# Sequence of Influenza RNA polymerase (Influenza A/PR8/34 (H1N1) virus lysate) (P03431 whole entry, looked up): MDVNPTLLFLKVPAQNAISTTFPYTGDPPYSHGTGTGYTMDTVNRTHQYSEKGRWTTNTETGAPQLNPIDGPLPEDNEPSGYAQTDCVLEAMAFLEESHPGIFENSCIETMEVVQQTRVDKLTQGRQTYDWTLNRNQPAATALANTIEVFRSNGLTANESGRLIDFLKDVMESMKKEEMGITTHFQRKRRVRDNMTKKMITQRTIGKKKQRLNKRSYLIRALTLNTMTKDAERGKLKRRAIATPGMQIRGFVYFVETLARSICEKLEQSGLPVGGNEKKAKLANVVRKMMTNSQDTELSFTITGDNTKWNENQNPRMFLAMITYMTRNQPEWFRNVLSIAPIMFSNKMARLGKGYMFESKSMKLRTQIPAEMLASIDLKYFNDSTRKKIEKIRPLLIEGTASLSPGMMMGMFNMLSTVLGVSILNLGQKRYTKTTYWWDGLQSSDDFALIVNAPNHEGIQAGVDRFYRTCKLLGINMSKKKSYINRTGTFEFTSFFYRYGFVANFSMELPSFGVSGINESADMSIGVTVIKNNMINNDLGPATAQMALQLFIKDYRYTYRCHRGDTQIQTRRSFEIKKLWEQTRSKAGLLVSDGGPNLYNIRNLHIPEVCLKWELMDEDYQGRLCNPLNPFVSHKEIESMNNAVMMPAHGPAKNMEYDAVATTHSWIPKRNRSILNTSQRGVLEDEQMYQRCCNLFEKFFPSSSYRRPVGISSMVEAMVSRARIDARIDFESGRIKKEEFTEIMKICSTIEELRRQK
smiles,measurement,setting,value
"Nc1ncnn2c([C@@H]3O[C@H](COP(=O)(O)OP(=O)(O)OP(=O)(O)O)[C@@H](O)[C@H]3F)ccc12 [Compound 11, ((2R,3R,4R,5S)-5-(4-aminopyrrolo[1,2-f][1,2,4]triazin-7-yl-4-fluoro-3-hydroxy-tetrahydrofuran-2-yl)methyltetrahydrogen triphosphate]",IC50,[1],0.95 to 1.59 µM
"Nc1ncnn2c([C@@H]3O[C@H](CO)[C@@H](O)[C@H]3F)ccc12 [Compound 1, (2R,3R,4R,5S)-5-(4-aminopyrrolo[1,2-f][1,2,4]triazin-7-yl)-4-fluoro-2-(hydroxymethyl)-tetrahydrofuran-3-ol]",EC50,[2],10.5 to 12.7 µM
"C[C@@]1(c2ccc3c(N)ncnn23)O[C@H](COP(=O)(O)OP(=O)(O)OP(=O)(O)O)[C@@H](O)[C@H]1F [Compound 9, ((2R,3R,4R,5S)-5-(4-aminopyrrolo[1,2-f][1,2,4]triazin-7-yl)-4-fluoro-3-hydroxy-5-methyltetrahydrofuran-2-yl)methyl tetrahydrogen triphosphate]",IC50,[1],2.1 to 2.97 µM
"Nc1nc(F)nn2c([C@@H]3O[C@H](COP(=O)(O)OP(=O)(O)OP(=O)(O)O)[C@@H](O)[C@H]3F)ccc12 [Compound 21, ((2R,3R,4R,5S)-5-(4-amino-2-fluoropyrrolo[1,2-f][1,2,4]triazin-7-yl)-4-fluoro-3-hydroxytetrahydrofuran-2-yl)methyl tetrahydrogen triphosphate]",IC50,[1],0.97 to 1.87 µM
"N#C[C@@]1(c2ccc3c(N)ncnn23)O[C@H](COP(=O)(O)OP(=O)(O)OP(=O)(O)O)[C@@H](O)[C@H]1F [Compound 10, ((2R,3R,4R,5R)-5-(4-aminopyrrolo[1,2-f][1,2,4]triazin-7-yl-5-cyano-4-fluoro-3-hydroxytetrahydrofuran-2-yl)methyltetrahydrogen triphosphate]",IC50,[1],48.6 to 116 µM
